The values below come from ChEMBL document CHEMBL3232855, “The discovery of N-((2H-tetrazol-5-yl)methyl)-4-((R)-1-((5r,8R)-8-(tert-butyl)-3-(3,5-dichlorophenyl)-2-oxo-1,4-diazaspiro[4.5]dec-3-en-1-yl)-4,4-dimethylpentyl)benzamide (SCH 900822): a potent and selective glucagon receptor antagonist” (J Med Chem, 2014).

Some results are limits rather than exact numbers.

The target of data set [1] is Glucagon-like peptide 1 receptor (Homo sapiens, UniProt P43220). The data set is described as follows: Antagonist activity at human GLP-1R expressed in CHO cells assessed as inhibition of GLP-1-stimulated cAMP production preincubated for 30 mins followed by GLP-1 induction measured after 45 mins by LANCE assay. In kind it is functional, cell-based. A general note: Changes in cAMP serve as a functional read-out for many G protein-coupled receptors.

Data set [2] concerns the target T1, Type-1 angiotensin II receptor (Homo sapiens) (UniProt P30556).
T1 sequence (whole entry): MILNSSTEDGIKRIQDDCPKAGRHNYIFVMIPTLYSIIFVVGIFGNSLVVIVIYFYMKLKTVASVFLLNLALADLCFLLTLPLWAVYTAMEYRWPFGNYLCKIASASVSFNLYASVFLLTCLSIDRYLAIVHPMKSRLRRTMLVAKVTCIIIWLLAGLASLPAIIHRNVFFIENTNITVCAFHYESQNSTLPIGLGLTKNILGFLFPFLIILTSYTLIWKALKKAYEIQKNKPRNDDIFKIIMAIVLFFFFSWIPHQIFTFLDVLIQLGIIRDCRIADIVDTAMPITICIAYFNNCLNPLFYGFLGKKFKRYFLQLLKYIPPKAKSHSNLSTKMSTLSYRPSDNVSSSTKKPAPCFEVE
Put plainly: Binding affinity to AT1 receptor (unknown origin) at 10 uM by antagonist displacement assay relative to control.

Data set [3] can be described thus: Plasma clearance in rat at 3 mg/kg, iv. The format is ADME, organism-based. On the set-up: dose 3 mg/kg, route intravenous.
A short description of data set [4]: Oral bioavailability in rat at 3 mg/kg. In kind it is ADME, organism-based. The conditions noted are these: in vivo.
A short description of data set [5]: Volume of distribution at steady state in dog at 1 mg/kg, iv. In kind it is ADME, organism-based, Canis lupus familiaris. On the set-up: dose 1 mg/kg, route intravenous. Conditions: in vivo, read-out: Vdss.
A further data set addresses Glucagon receptor (Mus musculus, UniProt Q61606). In kind it is cell membranes, Liver, Membrane.
The target in data set [6] is T2, Vasoactive intestinal polypeptide receptor 1 (Homo sapiens) (UniProt P32241).
T2 sequence (whole entry): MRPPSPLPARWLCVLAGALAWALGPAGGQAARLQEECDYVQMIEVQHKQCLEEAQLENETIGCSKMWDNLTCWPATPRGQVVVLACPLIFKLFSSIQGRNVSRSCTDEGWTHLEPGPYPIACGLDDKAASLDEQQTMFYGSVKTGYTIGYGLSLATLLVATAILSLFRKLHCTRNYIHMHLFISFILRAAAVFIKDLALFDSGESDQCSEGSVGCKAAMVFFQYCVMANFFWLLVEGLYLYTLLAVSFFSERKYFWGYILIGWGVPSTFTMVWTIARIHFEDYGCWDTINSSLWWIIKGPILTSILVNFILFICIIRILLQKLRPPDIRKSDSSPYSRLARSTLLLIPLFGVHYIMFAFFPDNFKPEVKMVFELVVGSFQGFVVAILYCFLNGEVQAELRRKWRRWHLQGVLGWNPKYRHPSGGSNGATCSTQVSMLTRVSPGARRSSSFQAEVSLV
The data set is described as follows: Binding affinity to VIP-1 receptor (unknown origin) at 10 uM by agonist displacement assay relative to control.

Glucagon receptor, sequence (Q61606 whole entry): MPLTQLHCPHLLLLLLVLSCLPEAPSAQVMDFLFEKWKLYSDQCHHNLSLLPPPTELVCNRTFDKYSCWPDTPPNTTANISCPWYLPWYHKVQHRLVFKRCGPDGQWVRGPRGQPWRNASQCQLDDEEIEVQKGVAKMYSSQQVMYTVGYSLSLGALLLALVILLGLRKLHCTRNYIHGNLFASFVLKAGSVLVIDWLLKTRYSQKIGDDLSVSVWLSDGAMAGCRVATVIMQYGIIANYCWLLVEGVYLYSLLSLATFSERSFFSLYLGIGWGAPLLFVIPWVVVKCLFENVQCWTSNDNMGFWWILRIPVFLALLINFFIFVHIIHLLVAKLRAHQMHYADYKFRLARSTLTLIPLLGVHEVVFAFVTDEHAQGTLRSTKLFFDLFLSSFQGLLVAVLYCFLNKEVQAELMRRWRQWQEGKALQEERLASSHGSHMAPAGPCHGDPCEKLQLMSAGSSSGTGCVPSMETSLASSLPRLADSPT
Glucagon-like peptide 1 receptor, sequence (P43220 whole entry): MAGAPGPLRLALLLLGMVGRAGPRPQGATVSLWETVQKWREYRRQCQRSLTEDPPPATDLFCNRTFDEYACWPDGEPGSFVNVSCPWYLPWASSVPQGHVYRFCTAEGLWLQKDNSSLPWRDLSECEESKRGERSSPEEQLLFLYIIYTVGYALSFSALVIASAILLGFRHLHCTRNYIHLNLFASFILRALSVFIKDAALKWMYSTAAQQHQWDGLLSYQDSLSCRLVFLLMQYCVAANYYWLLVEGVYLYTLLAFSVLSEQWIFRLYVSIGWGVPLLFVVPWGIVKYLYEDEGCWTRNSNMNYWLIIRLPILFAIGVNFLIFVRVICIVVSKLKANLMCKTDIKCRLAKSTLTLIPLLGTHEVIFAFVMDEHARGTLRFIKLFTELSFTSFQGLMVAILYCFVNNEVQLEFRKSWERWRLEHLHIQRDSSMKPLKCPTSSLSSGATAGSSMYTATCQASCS
Description for Glucagon receptor: Displacement of [125I]-glucagon from GCGR in mouse liver membranes after 60 mins by scintillation counting analysis

In the case of `CC(C)(C)CC[C@H](c1ccc(C(=O)NCc2nn[nH]n2)cc1)N1C(=O)C(c2cc(Cl)cc(Cl)c2)=N[C@]12CC[C@@H](C(C)(C)C)CC2`, the values for the IC50 (in data set [1]; against Glucagon receptor) were above 10 µM and 0.13 µM, respectively. The values for the inhibition in data set [2] and in data set [6] were 93% and 75%, respectively. In data set [3], the clearance was 1.8 mL/min/kg. Moreover, in data set [4], the bioavailability is 15%. The Vd in data set [5] stood at 0.1 L/kg.

The IC50 is the midpoint of a concentration-inhibition curve. The inhibition is the change of the read-out against control, counted positive when it falls. A lower inhibition goes with a weak effect. For orientation: clearance means the volume of plasma or blood freed of the substance per unit of time. In general, bioavailability refers to the share of a dose that reaches the circulation, judged against a reference dose that is usually intravenous. A high value points to good availability.
